System: NL-RLuc virus
Experiment: Inhibition of HIV replication (NL-RLuc virus, luciferase readout in MT-2 cells)
Assay type: cell-based
Conditions: Human immunodeficiency virus 1, MT2, 120 h, read-out: Activity
Outline: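 MT-2 cells were infected with NL-RLuc (Renilla luciferase in place of nef) in the presence of serial compound dilutions, in RPMI 1640 with 10% heat-inactivated FBS. After 5 days, luciferase was measured. EC50 came from the median effect equation using at least 2 experiments.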

Structure (SMILES)	EC50
Cc1nc(CN(C)CC2CCOCC2)c(-c2ccc3c(c2)CCN(c2ncnc4c2cnn4C)C3)c(-c2ccc3c(c2)CCCO3)c1[C@H](OC(C)(C)C)C(=O)O [Example 32, (S)-2-(tert-Butoxy)-2-(4-(chroman-6-yl)-2-methyl-6-((methyl((tetrahydro-2H-pyran-4-yl)methyl)amino)methyl)-5-(2-(1-methyl-1H-pyrazolo[3,4-d]pyrimidin-4-yl)-1,2,3,4-tetrahydroisoquinolin-6-yl)pyridin-3-yl)acetic Acid]	100 to 1000 nM
Cc1ccc(-c2c(-c3ccc4c(c3)CCN(Cc3ccccc3F)C4)c(C)nc(C)c2[C@H](OC(C)(C)C)C(=O)O)cc1 [Example 42, (S)-2-(tert-Butoxy)-2-(5-(2-(2-fluorobenzyl)-1,2,3,4-tetrahydroisoquinolin-6-yl)-2,6-dimethyl-4-(p-tolyl)pyridin-3-yl)acetic Acid]	< 100 nM
